Assay results from patent publication US10899709B2, “Novel-alkynyl-substituted 3-phenylpyrrolidine-2,4-diones and use thereof as herbicides” (BAYER CROPSCIENCE AKTIENGESELLSCHAFT, priority 2015, dated 2021).

Legend:
Type in all cases: in vivo
Alopecurus myosuroides [1] = test: Pre-emergence herbicidal effect; conditions: visual score after 3 weeks
From the text: (§1) Seeds of monocotyledonous and dicotyledonous weed plants and crop plants are laid out in wood-fibre pots in sandy loam and covered with soil. The compounds according to the invention formulated in the form of wettable powders (WP) or as emulsion concentrates (EC) are then applied as aqueous suspension or emulsion at a water application rate of 600 to 800 l/ha (converted) with the addition of 0.2% wetting agent to the surface of the covering soil. After the treatment, the pots are placed in a greenhouse and kept under good growth conditions for the trial plants. The damage to the test plants is scored visually after a test period of 3 weeks by comparison with untreated controls (herbicidal activity in percent (%): 100% activity=the plants have died, 0% activity=like control plants).

Avena fatua [2] = test: Pre-emergence herbicidal effect; conditions: visual score after 3 weeks
From the text: as §1

Cyperus esculentus = test: Pre-emergence herbicidal effect; conditions: visual score after 3 weeks
From the text: as §1

Echinochloa crus-galli [3] = test: Pre-emergence herbicidal effect; conditions: visual score after 3 weeks
From the text: as §1

Lolium multiflorum [4] = test: Pre-emergence herbicidal effect; conditions: visual score after 3 weeks
From the text: as §1

Setaria viridis [5] = test: Pre-emergence herbicidal effect; conditions: visual score after 3 weeks
From the text: as §1

Veronica persica [6] = test: Pre-emergence herbicidal effect; conditions: 320 g/ha, visual score after 3 weeks
From the text: as §1

Alopecurus myosuroides [7] = test: Post-emergence herbicidal effect; conditions: for Post-emergence effectiveness ALOMY: visual assessment after about 3 weeks
Method: (§2) Seeds of monocotyledonous and dicotyledonous weed and crop plants are laid out in sandy loam in wood-fibre pots, covered with soil and cultivated in a greenhouse under good growth conditions. 2 to 3 weeks after sowing, the test plants are treated at the one-leaf stage. The compounds according to the invention, formulated in the form of wettable powders (WP) or as emulsion concentrates (EC), are then sprayed as aqueous suspension or emulsion at a water application rate of 600 to 800 l/ha (converted) with the addition of 0.2% of wetting agent onto the green parts of the plants. After the test plants have been left to stand in the greenhouse under optimal growth conditions for about 3 weeks, the action of the preparations is assessed visually in comparison to untreated controls (herbicidal action in percent (%): 100% activity=the plants have died, 0% activity=like control plants).

Avena fatua [8] = test: Post-emergence herbicidal effect; conditions: for Post-emergence effectiveness AVEFA: visual assessment after about 3 weeks
Method: as §2

Echinochloa crus-galli [9] = test: Post-emergence herbicidal effect; conditions: visual assessment after about 3 weeks
Method: as §2

Lolium multiflorum [10] = test: Post-emergence herbicidal effect; conditions: visual assessment after about 3 weeks
Method: as §2

PHBPU = test: Post-emergence herbicidal effect; conditions: 20 g a.i./ha
Method: as §2

Setaria viridis [11] = test: Post-emergence herbicidal effect; conditions: visual assessment after about 3 weeks
Method: as §2

Polygonum convolvulus = test: Post-emergence herbicidal effect; conditions: 80 g/ha, visual assessment after about 3 weeks
Method: as §2

Veronica persica [12] = test: Post-emergence herbicidal effect; conditions: 80 g/ha, visual assessment after about 3 weeks
Method: as §2

Amaranthus retroflexus = test: Pre-emergence herbicidal effect; conditions: 320 g/ha, visual score after 3 weeks
From the text: as §1

Viola tricolor = test: Pre-emergence herbicidal effect; conditions: 320 g/ha, visual score after 3 weeks
From the text: as §1

Compound | Pre-emergence effectiveness ALOMY (Alopecurus myosuroides [1]; 80 g/ha) [%] | Pre-emergence effectiveness ALOMY (Alopecurus myosuroides [1]; 320 g/ha) [%] | Pre-emergence effectiveness AVEFA (Avena fatua [2]; 80 g/ha) [%] | Pre-emergence effectiveness AVEFA (Avena fatua [2]; 320 g/ha) [%] | Pre-emergence effectiveness CYPES (Cyperus esculentus; 320 g/ha) [%] | Pre-emergence effectiveness ECHCG (Echinochloa crus-galli [3]; 80 g/ha) [%] | Pre-emergence effectiveness ECHCG (Echinochloa crus-galli [3]; 320 g/ha) [%] | Pre-emergence effectiveness LOLMU (Lolium multiflorum [4]; 80 g/ha) [%] | Pre-emergence effectiveness LOLMU (Lolium multiflorum [4]; 320 g/ha) [%] | Pre-emergence effectiveness SETVI (Setaria viridis [5]; 80 g/ha) [%] | Pre-emergence effectiveness SETVI (Setaria viridis [5]; 320 g/ha) [%] | Pre-emergence effectiveness VERPE (Veronica persica [6]) [%] | Post-emergence effectiveness ALOMY (Alopecurus myosuroides [7]; 20 g/ha) [%] | Post-emergence effectiveness ALOMY (Alopecurus myosuroides [7]; 80 g/ha) [%] | Post-emergence effectiveness AVEFA (Avena fatua [8]; 80 g/ha) [%] | Post-emergence effectiveness ECHCG (Echinochloa crus-galli [9]; 20 g/ha) [%] | Post-emergence effectiveness ECHCG (Echinochloa crus-galli [9]; 80 g/ha) [%] | Post-emergence effectiveness LOLMU (Lolium multiflorum [10]; 80 g/ha) [%] | Post-emergence effectiveness SETVI (Setaria viridis [11]; 20 g/ha) [%] | Post-emergence effectiveness SETVI (Setaria viridis [11]; 80 g/ha) [%] | further results
CC#Cc1cc(C)c(C2=C(O)C3(CCC(COC)CC3)NC2=O)c(CC)c1 (stereo not drawn) [Example I-5] | 100 | 100 | 100 | 100 | 100 | 100 | 100 | 100 | 100 | 100 | 100 | 80 | 90 | 100 | 100 | 100 | 100 | 100 | 90 | 100 | Comparison data for post-emergence effect ALOMY (Alopecurus myosuroides [7]; 20 g a.i./ha): 90%; Comparison data for post-emergence effect AVEFA (Avena fatua [8]; 20 g a.i./ha): 90%; Post-emergence effectiveness AVEFA (Avena fatua [8]; 20 g/ha): 90%; Post-emergence effectiveness LOLMU (Lolium multiflorum [10]; 20 g/ha): 90%; Comparison data for post-emergence effect PHBPU (PHBPU): 30%
CCc1cc(C#CC2CC2)cc(C)c1C1=C(O)C2(CCC(COC)CC2)NC1=O (stereo not drawn) [Example I-7] | 80 | 100 | – | – | – | 100 | 100 | 100 | 100 | 90 | 100 | – | 90 | 100 | 100 | 100 | 100 | 100 | 100 | 100 | Post-emergence effectiveness LOLMU (Lolium multiflorum [10]; 20 g/ha): 90%; Post-emergence effectiveness POLCO (Polygonum convolvulus): 80%
CC#Cc1cc(C)c(C2=C(OC(=O)C(C)C)C3(CCC(COC)CC3)NC2=O)c(CC)c1 (stereo not drawn) [Ia-3] | 90 | 100 | 80 | 90 | – | 100 | 100 | 100 | 100 | 100 | 100 | 90 | 90 | 100 | – | 90 | 100 | 100 | 90 | 100 | Post-emergence action VERPE (Veronica persica [12]): 90%
CC#Cc1cc(CC)c(C2=C(OC(=O)C(C)C)C3(CCC(CCOC)CC3)NC2=O)c(CC)c1 (stereo not drawn) [Example Ia-5] | 100 | 100 | 80 | 100 | 100 | 100 | 100 | 100 | 100 | 100 | 100 | 100 | – | – | – | – | – | – | – | – | Pre-emergence effectiveness AMARE (Amaranthus retroflexus): 100%; Pre-emergence effectiveness CYPES (Cyperus esculentus; 80 g/ha): 100%
CC#Cc1cc(C)c(C2=C(OC(=O)C(C)C)C3(CCC(CCOC)CC3)NC2=O)c(CC)c1 (stereo not drawn) [Ia-4] | – | 80 | – | – | – | 100 | 100 | – | 90 | 100 | 100 | 90 | – | – | – | – | – | – | – | – | Pre-emergence effectiveness VIOTR (Viola tricolor): 100%
